Experimental data as given in US7129213B2, “Tripeptides and tripeptide derivatives for the treatment of neurodegenerative diseases” (Neurotell AG, priority 2002, dated 2006).
Where a name gives a salt, the structure may show the parent alone. Where a SMILES comes first, the peptide text is derived from it.

Legend:
[1] = test system: rats pretreated with orally administered dexamethasone; experiment: Dexamethasone model, sound avoidance conditioning; type: in vivo, rat
Experimental: (§1) 20 rats were orally administered 50 mg/kg/day of dexamethasone over a period of 21 days. At Day 19, the animals were chloralized (360 mg/kg), and a catheter was placed into the carotid artery as described above. At Day 21, the animals were randomly divided into two groups: • one group of 10 rats received an intracarotid injection of 1 ml/kg/day of normal saline for a period of 10 days (controls). • one group of 10 rats received 20 mg/kg/day of HCl-Gly-Phe-PrONH2 dissolved in normal saline for a period of 10 days. The injections were given at 9.00 a.m.
During the last five days of treatment, the rats were placed under the common learning conditions of the three models between 10.00 a.m. and 11.00 a.m. (see below).
(§2) During the last five days of treatment, at 10.00 a.m. (1 hour after the administration of HCl-Gly-Phe-ProNH2), the animals were placed into a learning cage for sound avoidance conditioning (Conditioning avoidance response). The animals learned to climb a pole first to escape from and then to avoid an electric shock. This method was standardized and quantified in our laboratory (see Le Poncin M., Lafitte J. C., Rapin J. R., Sound Avoidance Conditioning and a Mathematical approach to the description of acquisition performance, Math. Biosciences 59 (1982) 242–268).
(§3) For a period of five days, the animals were placed everyday under these learning conditions for a total of ten tests a day. Results are expressed as percentage of adequate responses, and the kinetics of the responses is represented by a multi-exponential maximum curve.
(§4) The curve maximum represents the learning capacities. The slope of the curve evaluates the learning speed. The area under the curve (AUC) represents a good evaluation of all conditioning parameters. The maximum value of the area under the curve is 500, if the animals show 100% adequate responses as early as Day 0. In fact, an average area under the curve is calculated per day, what amounts to a maximum value of 100. In the absolute control animals, this average area under the curve is equal to 40+/−4.

[2] = test system: type II glucocorticoid receptors in the hippocampus; experiment: Dexamethasone model, determination of the corticoid receptors; type: in vivo, rat; conditions: rats pretreated by dexamethasone, 20 mg/kg/day 10 days
Experimental: as §1
After the last learning session at 11.00 a.m., the rats were sacrificed by means of decapitation, and the hippocampi were quickly removed and put on a plate cooled to 0° C. The number of glucocorticoid receptors was determined by a binding method using a labeled corticoid and a specific inhibitor to the binding of the corticoid to the receptor (here a total agonist). The protein content was measured by Lowry's method.
The hippocampi of each rat were homogenized in 2 ml of sodium EDTA Glycerol molybdate buffer. […] An aliquot of the supernatant was diluted in distilled water, and the protein content was measured by Lowry's method. […]
After one night of incubation at 4° C., charcoal/dextran was added to absorb […] dexamethasone. After centrifugation, the radioactivity of the supernatant was measured by liquid scintillation. […]

[3] = test system: rat treated by Gp120 as intracerebroventricular injection; experiment: Gp120 model, sound avoidance conditioning; type: in vivo; conditions: for AUC (average area under the learning curve per day) / percentage of adequate responses D0 / percentage of adequate responses D3 / percentage of adequate responses D4: Gp120 ICV; for percentage of adequate responses D0: learning day D0; for percentage of adequate responses D3: learning day D3; for percentage of adequate responses D4: learning day D4
Experimental: Day 0. The animals were slightly anesthetized by ether, an incision was made into the skin of the skull, and the skull was pierced by means of a dental burr. A metal needle was stereotaxically directed to the lateral ventricle, and then fixed by means of dental cement. Every day of the experiment, the patency of the needle was controlled.
Day 3. Three days after introducing the needle (recovery from the postoperative shock) the animals received an intra-ventricular injection of 10 nM/kg/day of Gp120 (dissolved in normal saline) in a volume of 20 μl. This administration was repeated daily for a period of five days.
Day 18. Ten days after the last administration of Gp120, the rats were chloralized (360 mg/kg). A permanent floating catheter was retrogradely introduced into the common carotid artery. This catheter left again on the top of the skull, where it was fixed.
(§5) Day 21. Three days later (recovery from the postoperative shock), the 30 rats were randomly divided into three group of 10 animals each: • the first group of 10 rats received an intracarotid injection of 1 ml/kg/day of normal saline for a period of 10 days. • the second group of 10 rats received 10 mg/kg/day of HCl-Gly-Phe-ProNH2 (dissolved in normal saline) for a period of 10 days. • the third group received 20 mg/kg/day of HCl-Gly-Phe-ProNH2 under the same conditions. The injections were given between 9.00 and 9.30 a.m.
Day 26 to 30. The animals of all three groups were placed under the common learning conditions of the entire protocol. The learning sessions took place between 10.00 a.m. and 11.00 a.m.
as §2, §3, §4

hippocampal neurons = experiment: Gp120 model, neuronal count; type: in vivo, rat; conditions: CAIII layers, after ICV Gp120; 10 mg/kg/day
Experimental: as §5
Day 30. After the last learning session, the rats were sacrificed by means of decapitation, the brain was rapidly removed and frozen at […] in liquid nitrogen vapor. Brain sections were made by Cryocut at −20° C.
The sections are defrosted and stained with neutral red. After fixation, the number of neurons on one slice of the hippocampus was measured. The method is standardized by counting the neurons on the same slice. An index of the number of neurons compared to a control rat allows for a more reliable quantification than the simple counting.
The neurons are counted in the CAIII layers of the hippocampus. […] By definition, the value found in the control animals is 100 with a maximum variation of 5%.

[4] = PAMPA
From the text: The Parallel Artificial Membrane Permeation Assay system (PAMPA) is a simple and fast method for the prediction of gastrointestinal drug absorption. Drug permeation of biological cell layers is mainly related to passive diffusion processes. The PAMPA method measures the permeation of potential new drugs across an artificial membrane by passive diffusion and allows a classification into low, medium and high absorbers.
The artificial membrane was built up by pipetting a solution of lecithine in organic solvent on a supporting filter material in 96-well plates. For all test compounds, stock solutions of 5 mM were prepared in ethanol. They were then diluted in Tris-buffer (0.05 M, pH 7,4) to a final concentration of 500 μM. Permeation rates of all test compounds were measured in triplicate or quadruplicate. Diffusion time across the artificial membrane was 16 h. For all compounds reference values without phospholipid layer were individually determined. Concentrations in the acceptor compartments were measured by UV difference spectroscopy using a microtiter plate reader Spectramax Plus^384 from Molecular Devices. For each compound the λmax values were determined in a previous run and measurements were performed at this wavelength. The permeation rates are expressed as flux rates, which are calculated according to the following formula: flux (%)=OD (test well)/OD (control well)×100. […] Lucifer Yellow, a non-permeating dye, has been applied to each well postexperimentally and the concentration of the marker measured in a Wallac Victor^2 1420 Multilabel Counter. Wells, in which the concentration of Lucifer Yellow exceeded 1% of the amount detected in the control wells (without artificial membrane) were discarded.

NCC(=O)N[C@@H](Cc1ccccc1)C(=O)N1CCC[C@H]1C(N)=O [HCl-Gly-Phe-ProNH2, glycyl-L-phenylalanyl-L-prolineamide] (H-Gly-Phe-Pro-NH2)
percentage of adequate responses D0 ([1]; dexamethasone 50 mg/kg/day oral 21 days, 20 mg/kg/day 10 days, learning day D0): 0%
effect on learning capacities ([1]; dexamethasone model): partially restores the learning capacities
AUC (average area under the learning curve per day) ([1]; dexamethasone model, 20 mg/kg/day 10 days): **35.0 +/− 3.1
percentage of adequate responses D1 ([1]; dexamethasone model, 20 mg/kg/day 10 days, learning day D1): 7 +/− 2%
percentage of adequate responses D2 ([1]; dexamethasone model, 20 mg/kg/day 10 days, learning day D2): **29 +/− 5%
percentage of adequate responses D3 ([1]; dexamethasone model, 20 mg/kg/day 10 days, learning day D3): **57 +/− 4%
percentage of adequate responses D4 ([1]; dexamethasone model, 20 mg/kg/day 10 days, learning day D4): **75 +/− 3%
type II glucocorticoid receptors in the hippocampus [2]: **73 +/− 4 femtomols/mg of proteins
type II glucocorticoid receptors in the hippocampus ([2]; listed as HCL-GLY-PHE-PRONH2): reduces the down regulation of the glucocorticoid receptors
AUC (average area under the learning curve per day) ([3]; 10 mg/kg/day 10 days): **23.8 +/− 4.1
percentage of adequate responses D0 ([3]; 10 mg/kg/day 10 days): 0%
percentage of adequate responses D3 ([3]; 10 mg/kg/day 10 days): **35 +/− 4%
percentage of adequate responses D4 ([3]; 10 mg/kg/day 10 days): **55 +/− 7%
AUC (average area under the learning curve per day) ([3]; 20 mg/kg/day 10 days): **29.6 +/− 3.0
percentage of adequate responses D0 ([3]; 20 mg/kg/day 10 days): 0%
percentage of adequate responses D3 ([3]; 20 mg/kg/day 10 days): **48 +/− 5%
percentage of adequate responses D4 ([3]; 20 mg/kg/day 10 days): **70 +/− 5%
effect on learning parameters ([3]; Gp120 model, 10 and 20 mg/kg): restores the capacities of the animal depending on the dose
Counting of the hippocampal neurons (index, control animals = 100) (hippocampal neurons): 46 +/− 4
PAMPA classification, predicted absorption after peroral application [4]: weakly absorbed
